39 molecules from patent publication US8003649B2 (AstraZeneca AB, priority 2007, dated 2011) can be followed below.

In this assay the target is T1, Androgen Receptor (AR) (Homo sapiens, UniProt P10275, T878A).
T1 construct: cell based immuno-fluorescence assay using the LNCaP prostate epithelial cell line; endogenous in cells; host or cells: LNCaP clone FGC (ATCC CRL-1740)
T1 sequence (P10275 1-920 T878A): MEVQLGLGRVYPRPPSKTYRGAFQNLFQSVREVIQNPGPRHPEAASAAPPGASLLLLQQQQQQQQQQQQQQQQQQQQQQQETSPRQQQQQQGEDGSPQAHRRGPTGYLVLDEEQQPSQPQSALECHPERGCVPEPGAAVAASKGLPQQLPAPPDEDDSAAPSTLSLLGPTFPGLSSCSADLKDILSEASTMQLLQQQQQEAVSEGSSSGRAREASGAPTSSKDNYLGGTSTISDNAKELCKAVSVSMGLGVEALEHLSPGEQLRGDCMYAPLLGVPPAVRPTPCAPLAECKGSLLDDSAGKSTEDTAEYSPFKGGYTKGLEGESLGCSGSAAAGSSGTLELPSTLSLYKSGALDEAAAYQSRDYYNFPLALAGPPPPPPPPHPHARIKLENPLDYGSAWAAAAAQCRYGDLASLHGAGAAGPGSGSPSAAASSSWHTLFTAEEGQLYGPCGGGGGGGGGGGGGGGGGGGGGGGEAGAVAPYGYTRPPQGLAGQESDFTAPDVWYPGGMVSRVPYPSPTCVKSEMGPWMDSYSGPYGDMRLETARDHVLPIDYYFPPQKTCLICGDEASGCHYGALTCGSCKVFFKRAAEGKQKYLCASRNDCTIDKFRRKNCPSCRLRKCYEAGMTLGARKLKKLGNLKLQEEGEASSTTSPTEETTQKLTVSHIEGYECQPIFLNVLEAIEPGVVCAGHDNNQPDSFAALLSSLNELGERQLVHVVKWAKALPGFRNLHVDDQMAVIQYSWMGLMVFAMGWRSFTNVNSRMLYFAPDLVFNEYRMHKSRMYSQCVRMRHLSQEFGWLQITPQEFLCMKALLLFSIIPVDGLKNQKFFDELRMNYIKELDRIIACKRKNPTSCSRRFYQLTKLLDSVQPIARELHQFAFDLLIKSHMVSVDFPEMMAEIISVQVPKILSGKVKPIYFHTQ
Description: LNCaP Androgen Receptor Down-regulation Cell Assay (immunofluorescence end point). The conditions noted are these: LNCaP prostate carcinoma cells, compound incubation 20-22 hours, 50% reduction of the AR signal; read-out: Androgen Receptor Down-regulation Assay (a) IC50/μM. It is filed as cell-based. The procedure, abridged:
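LNCaP cells in medium with 5% charcoal-stripped FBS were plated overnight, then treated with a compound dilution series for 20-22 h at 37° C. After fixation, permeabilisation and immunostaining, AR-associated green fluorescence was quantified by laser-scanning microplate cytometry; AR down-regulation expressed as IC50 from fitted dose-response curves.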
`CC(C)(C)OCC1CCN(c2ccc3nnc(C(F)(F)F)n3n2)CC1` [Example 489, 6-[4-(tert-butoxymethyl)piperidin-1-yl]-3-(trifluoromethyl)[1,2,4]triazolo[4,3-b]pyridazine]: the DC50 was found to be 3.6 µM.

Regarding `FC(F)(F)c1nnc2ccc(N3CCC(n4ccc5ccccc54)CC3)nn12` [Example 542], the DC50 is 2.6 µM.

`O=C(c1cccc(C2CCN(c3ccc4nnc(C(F)(F)F)n4n3)CC2)c1)N1CCOCC1` [Example 648]: the DC50 was 2.1 µM.

For `O=C(NCCn1cccn1)c1cccc(OC2CCN(c3ccc4nnc(C(F)(F)F)n4n3)CC2)c1` [Example 705], the DC50 amounted to 5.3 µM.

Take `Fc1cccc(CN[C@H]2[C@@H]3CN(c4ccc5nnc(C(F)(F)F)n5n4)C[C@@H]32)c1` [Example 556]: the DC50 is 4.4 µM.

`FC(F)(F)c1ccc(CN2CCN(c3ccc4nnc(C(F)(F)F)n4c3)CC2)cc1` [Example 186, 3-(trifluoromethyl)-6-[4-[[4-(trifluoromethyl)phenyl]methyl]piperazin-1-yl]-[1,2,4]triazolo[4,3-a]pyridine]: the DC50 came to 2.8 µM.

For the molecule `COc1nccc(-c2c(-c3ccc(F)cc3)ncn2C2CCN(c3ccc4nnc(C(F)(F)F)n4n3)CC2)n1` [Example 31, 6-[4-[4-(4-fluorophenyl)-5-(2-methoxypyrimidin-4-yl)imidazol-1-yl]piperidin-1-yl]-3-(trifluoromethyl)-[1,2,4]triazolo[4,3-b]pyridazine], the DC50 is 2.1 µM.

Take `C[C@@H]1CN(Cc2ccc(F)cc2)CCN1c1ccc2nnc(C(F)(F)F)n2n1` [Example 603]: the DC50 amounted to 3.5 µM.

On to `FC(F)(F)c1nnc2ccc(N3CC[C@H](Oc4cccnc4)C3)nn12` [Example 587, 6-[(3S)-3-(pyridin-3-yloxy)pyrrolidin-1-yl]-3-(trifluoromethyl)[1,2,4]triazolo[4,3-b]pyridazine], for which the DC50 was over 17 µM.

As for `Fc1cccc(C2CCN(c3ccc4nnc(C(F)(F)F)n4n3)CC2)c1` [Example 525], the DC50 was 5.2 µM.

For `Fc1cc(F)cc(CN2CCN(c3ccc4nnc(C(F)(F)F)n4n3)CC2)c1` [Example 391], the DC50 is 2.7 µM.

For the molecule `CSc1ccc(CN2CCN(c3ccc4nnc(C(F)(F)F)n4n3)CC2)cc1` [Example 129, 6-[4-[(4-methylsulfanylphenyl)methyl]piperazin-1-yl]-3-(trifluoromethyl)-[1,2,4]triazolo[4,3-b]pyridazine], the DC50 is 0.99 µM.

In the case of `FC(F)(F)c1nnc2ccc(N3CCN(CC4CCCCC4)CC3)nn12` [Example 99, 6-[4-(cyclohexylmethyl)piperazin-1-yl]-3-(trifluoromethyl)-[1,2,4]triazolo[4,3-b]pyridazine], the DC50 is 2.9 µM.

For `FC(F)(F)c1nnc2ccc(N3CCC(c4c[nH]c5ncccc45)CC3)nn12` [Example 325, 6-[4-(1H-pyrrolo[2,3-b]pyridin-3-yl)piperidin-1-yl]-3-(trifluoromethyl)[1,2,4]triazolo[4,3-b]pyridazine], the DC50 was over 1.2 µM.

For `FC(F)(F)c1nnc2ccc(N3CC4CN(Cc5cnccc5Cl)CC4C3)nn12` (stereo not drawn) [Example 800], the DC50 stood at 1.1 µM.

For the molecule `Cn1c(CN2CCN(c3ccc4nnc(C(F)(F)F)n4n3)CC2)nc2ccccc21` [Example 54, 6-[4-[(1-methylbenzimidazol-2-yl)methyl]piperazin-1-yl]-3-(trifluoromethyl)-[1,2,4]triazolo[4,3-b]pyridazine], the DC50 turned out to be 6.7 µM.

In the case of `O=C(c1ccc(N2CCN(c3ccc4nnc(C(F)(F)F)n4n3)CC2)cc1)N1CC[C@@H](O)C1` [Example 747], the DC50 was 23 µM.

Take `Fc1ccc(C2=CCN(c3ccc4nnc(C(F)(F)F)n4n3)CC2)cc1` [Example 552]: the DC50 was determined as 7.8 µM.

As for `FC(F)(F)c1nnc2ccc(N3CCC(Oc4ncccc4Br)CC3)nn12` [Example 723], the DC50 worked out at 0.9 µM.

Take `Cc1ccc(Oc2cccc(CN3CCN(c4ccc5nnc(C(F)(F)F)n5n4)CC3)c2)cc1` [Example 105, 6-[4-[[3-(4-methylphenoxy)phenyl]methyl]piperazin-1-yl]-3-(trifluoromethyl)-[1,2,4]triazolo[4,3-b]pyridazine]: the DC50 is 3.2 µM.

As for `CN1CCC(C(=O)Nc2ccc(C3CCN(c4ccc5nnc(C(F)(F)F)n5n4)CC3)cc2)CC1` [Example 663], the DC50 is 2.7 µM.

Turning to `Fc1cccc(-c2nc(C3CCN(c4ccc5nnc(C(F)(F)F)n5n4)CC3)no2)c1` [Example 302], the DC50 was 1.1 µM.

On to `COC(=O)c1ccc(CN2CCN(c3ccc4nnc(C(F)(F)F)n4n3)CC2)cc1` [Example 121, methyl 4-[[4-[3-(trifluoromethyl)-[1,2,4]triazolo[4,3-b]pyridazin-6-yl]piperazin-1-yl]methyl]benzoate], for which the DC50 was determined as 4.8 µM.

With `FC(F)(F)c1ncccc1CN1CCN(c2ccc3nnc(C(F)(F)F)n3n2)CC1` [Example 777], the DC50 was 4.6 µM.

As to `CC1CN(c2ccc3nnc(C(F)(F)F)n3n2)C(C)CN1Cc1ccc(C#N)cc1` (stereo not drawn) [Example 218], the DC50 is over 7.3 µM.

Turning to `C[C@H]1CN(c2ccc3nnc(C(F)(F)F)n3n2)CCN1Cc1ccc(C#N)cc1` [Example 571], the DC50 worked out at 0.96 µM.

In the case of `O=C(c1cccc(OC2CCN(c3ccc4nnc(C(F)(F)F)n4n3)CC2)c1)N1CCOCC1` [Example 693], the DC50 was found to be 2.3 µM.

Turning to `CN1CCN(CCNC(=O)c2ccc(C3CCN(c4ccc5nnc(C(F)(F)F)n5n4)CC3)cc2)CC1` [Example 642], the DC50 amounted to 1.4 µM.

Regarding `N#Cc1cc(OC2CCN(c3ccc4nnc(C(F)(F)F)n4n3)CC2)ccn1` [Example 449, 4-[[1-[3-(trifluoromethyl)[1,2,4]triazolo[4,3-b]pyridazin-6-yl]piperidin-4-yl]oxy]pyridine-2-carbonitrile], the DC50 came to 4.8 µM.

Consider `FC(F)(F)c1nnc2ccc(N3CCN(Cc4c[nH]c5cccc(Cl)c45)CC3)nn12` [Example 282], for which the DC50 was 2.4 µM.

As for `Fc1ccc(Cl)c(CN2CCN(c3ccc4nnc(C(F)F)n4n3)CC2)c1` [Example 815], the DC50 was over 17 µM.

As to `FC(F)(F)c1nnc2ccc(N3CC[C@@H](Oc4ccccn4)C3)nn12` [Example 578, 6-[(3R)-3-(pyridin-2-yloxy)pyrrolidin-1-yl]-3-(trifluoromethyl)[1,2,4]triazolo[4,3-b]pyridazine], the DC50 was 2.5 µM.

As for `COc1cccc(C2CCN(c3ccc4nnc(C(F)(F)F)n4n3)CC2)c1` [Example 526], the DC50 came to 2.5 µM.

Consider `CN(C)C(=O)c1ccc(OC2CCN(c3ccc4nnc(C(F)(F)F)n4n3)CC2)cc1` [Example 417], for which the DC50 amounted to 4.6 µM.

In the case of `CN(CCS(C)(=O)=O)C(=O)c1ccc(C2CCN(c3ccc4nnc(C(F)(F)F)n4n3)CC2)cc1` [Example 741], the DC50 was 2.2 µM.

For `CN1CCC(NC(=O)c2ccc(C3CCN(c4ccc5nnc(C(F)(F)F)n5n4)CC3)cc2)CC1` [Example 641], the DC50 amounted to 1.4 µM.

As to `FC(F)(F)c1nnc2ccc(N3CCC(c4ccc(OCc5ccon5)cc4)CC3)nn12` [Example 733], the DC50 is 0.6 µM.

As to `O=C(NCCN1CCOCC1)c1ccc2[nH]cc(C3CCN(c4ccc5nnc(C(F)(F)F)n5n4)CC3)c2c1` [Example 503], the DC50 came to 4.3 µM.

On to `CC(=O)Nc1cccc(C2CCN(c3ccc4nnc(C(F)(F)F)n4n3)CC2)c1` [Example 655, N-[3-[1-[3-(trifluoromethyl)[1,2,4]triazolo[4,3-b]pyridazin-6-yl]piperidin-4-yl]phenyl]acetamide], for which the DC50 turned out to be 1.1 µM.
